Each block holds one molecule with its values, some of them ahead of it.
What was measured:
EVH-1 domain [1] = experiment: Binding affinity to EVH-1 domain by isothermal titration calorimetry (ITC), Table 1; conditions: for Kd / ITC ΔG: ITC; for Kd: EVH-1 domain; for ITC ΔG: free enthalpy of protein-ligand complex
Protocol: (§1) The substitution of the diproline units of the FPPPP motif with the Fmoc-ProMs was carried out. The binding affinities of the ligands to the domain were subsequently determined by means of isothermal titration calorimetry (ITC) on the basis of the dissociation constant (Kd) or the free enthalpy (ΔG) of the protein-ligand complexes. The results of the measurements were additionally checked by means of fluorescence titration (FT). A stronger binding of the respective ligand is expressed by a smaller value for Kd or a more negative value for ΔG. The correlation between the dissociation constant (Kd) and the free enthalpy (ΔG) is illustrated with the following equations: […]

EVH-1 domain [2] = experiment: Binding affinity to EVH-1 domain by fluorescence titration (FT), Table 1; conditions: for Kd: EVH-1 domain; for FT ΔG: free enthalpy of protein-ligand complex
Protocol: as §1

in vitro [3] = format: in vitro ADME; conditions: for Plasma stability, % remaining (Tlast 240 min): 4 h; for half-life: plasma
Protocol: An in vitro assay was performed in the plasma of mice and humans.

EVL-EVH1 [4] = target: T1, EVL-EVH1 (Homo sapiens, UniProt Q9UI08); experiment: Binding affinity by FT, EVL-EVH1
T1 construct: VASP-EVH-1, EnaH-EVH-1 and EVL-EVH-1 domain
Protocol: as §1
(§2) A further analysis to test the dissociation constant (Kd) of a variety of other compounds was carried out by means of FT and ITC.

in vitro [5] = format: in vitro ADME; conditions: mouse, microsomes
EnaH-EVH1 [6] = target: T2, EnaH-EVH1 (Homo sapiens, UniProt Q8N8S7); experiment: Binding affinity by FT, EnaH-EVH1
T2 construct: VASP-EVH-1, EnaH-EVH-1 and EVL-EVH-1 domain
Protocol: as §1, §2

EVL-EVH1 [7] = target: T1, EVL-EVH1; experiment: Binding affinity by ITC, EVL-EVH1
Protocol: as §1, §2

in vitro [8] = format: in vitro ADME; conditions: human, microsomes
EnaH-EVH1 [9] = target: T2, EnaH-EVH1; experiment: Binding affinity by ITC, EnaH-EVH1
Protocol: as §1, §2

VASP-EVH1 [10] = target: T3, VASP-EVH1 (Homo sapiens, UniProt P50552); experiment: Binding affinity by FT, VASP-EVH1
T3 construct: VASP-EVH-1, EnaH-EVH-1 and EVL-EVH-1 domain
Protocol: as §1, §2

in vitro [11] = conditions: mouse, mouse plasma
VASP-EVH1 [12] = target: T3, VASP-EVH1; experiment: Binding affinity by ITC, VASP-EVH1
Protocol: as §1, §2

in vitro [13] = conditions: human, human plasma
target cells = experiment: Cell experiments: absorption of the compound by target cells; format: cell-based; conditions: ester derivative versus carboxylic acid ligand; result in words
Excerpt: Within the framework of cell experiments it could further be shown that, by replacing the carboxylic acid ligand with the ester derivative (NBD-Phe(2-CI)-[ProM-2][ProM-1]-OEt), the ability of the compound to be absorbed by the target cells could be improved. The absorption of the substance in the cell could thus be increased, without loss of the advantageous binding properties.

ena/VASP-EVH1 = experiment: Inhibition of ena/VASP-EVH1-mediated protein-protein interactions, affinity for the target (statements in words); format: binding; conditions: result in words
VASP-EVH1 [14] = target: T3, VASP-EVH1; experiment: Binding data to VASP-EVH1 (text, method not stated); conditions: text b160
cells = experiment: Cellular toxicity; format: cell-based; conditions: result in words
Excerpt: FIG. 2: Cellular toxicity of the compound in accordance with Formula III.
The low or absent cellular toxicity likewise constitutes a surprising and advantageous property of the compounds. The inventive compounds bind to the target receptor not only with very low dissociation constants, but also with high specificity. For medical use of the compounds this is to be considered as an advantage.

[15] = system: MDA MB 231 breast cancer cells; experiment: Matrigel migration assay (chemotaxis and motility); format: cell-based; conditions: relative to the baseline value (DMSO/no FBS gradient)
Protocol: FIG. 1: Inhibition of the chemotaxis and motility of highly invasive tumor cells in a matrigel migration assay.
Cell culture experiments were performed with MDA MB 231 breast cancer cells.
Example Compound III inhibits the migration of MDA MB 231 breast cancer cells by more than 90% relative to the baseline value (DMSO/no FBS gradient) (FIGS. 1 A and B).

T3 sequence (P50552 2-113 limits assumed): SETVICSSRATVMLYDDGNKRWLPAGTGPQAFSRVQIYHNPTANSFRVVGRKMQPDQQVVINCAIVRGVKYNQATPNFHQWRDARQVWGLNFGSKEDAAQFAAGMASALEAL
T1 sequence (Q9UI08 1-112 limits assumed): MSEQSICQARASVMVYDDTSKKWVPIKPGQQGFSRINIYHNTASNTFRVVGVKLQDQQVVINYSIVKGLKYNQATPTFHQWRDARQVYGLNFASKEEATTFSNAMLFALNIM
T2 sequence (Q8N8S7 1-111 limits assumed): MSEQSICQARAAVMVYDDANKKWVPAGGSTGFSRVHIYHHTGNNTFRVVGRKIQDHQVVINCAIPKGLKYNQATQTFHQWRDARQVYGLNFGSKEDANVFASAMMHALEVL

Molecule: CC(=O)N[C@@H](CO)C(=O)N[C@@H](Cc1ccccc1)C(=O)N[C@@H](CCC(=O)O)C(=O)N[C@@H](Cc1ccccc1)C(=O)N1CCC[C@H]1C(=O)N1CCC[C@H]1C(=O)N1CCC[C@H]1C(=O)N1CCC[C@H]1C(=O)N[C@H](C(=O)N[C@@H](CCC(=O)O)C(=O)N[C@@H](CC(=O)O)C(=O)N[C@@H](CCC(=O)O)C(=O)N[C@@H](CC(C)C)C(N)=O)[C@@H](C)O [reference compound]
- Kd (EVH-1 domain [1]): 20 µM

Molecule: NBD-Phe(2-CI)-[ProM-2]-[ProM-1]-OEt [NBD-Phe(2-CI)-[ProM-2][ProM-1]-OEt]
- ability to be absorbed by the target cells (target cells): improved

Molecule: CCOC(=O)[C@@H]1C[C@@H](CC)[C@@H]2C=C[C@H]3CCN(C(=O)[C@@H]4CC[C@H]5C=C[C@]6(CCCN6C(=O)[C@H](Cc6ccccc6Cl)NC(C)=O)C(=O)N54)[C@@H]3C(=O)N12 [Ac[2-Cl—F][ProM-2][ProM-13]-OEt, Ac-Phe(2-CI)-[ProM-2][ProM-13]-OEt]
- affinity for the target (ena/VASP-EVH1): particularly strong affinity
- Kd (EVL-EVH1 [4]): 0.13 µM
- Kd (EnaH-EVH1 [6]): 0.18 µM
- Kd (EVL-EVH1 [7]): 0.28 µM
- Kd (EnaH-EVH1 [9]): 0.31 µM
- Kd (VASP-EVH1 [10]): 0.4 µM
- Kd (VASP-EVH1 [12]): 0.49 µM

Molecule: Ac-Phe(2-Cl)-PPPP-OH
- Kd (EVH-1 domain [1]): 18 µM
- ITC ΔG (EVH-1 domain [1]): -6.45 kcal/mol
- Kd (EVH-1 domain [2]): 13 µM
- FT ΔG (EVH-1 domain [2]): -6.64 kcal/mol

Molecule: CCOC(=O)[C@@H]1C[C@@H](C)[C@@H]2C=C[C@H]3CCN(C(=O)[C@@H]4CC[C@H]5C=C[C@]6(CCCN6C(=O)[C@H](Cc6ccccc6Cl)NC(C)=O)C(=O)N54)[C@@H]3C(=O)N12 [Compound III]
- inhibition of ena/VASP-EVH1-mediated protein-protein interactions (ena/VASP-EVH1): selectively inhibit
- Kd (VASP-EVH1 [14]): 0.28 µM
- cellular toxicity (cells): non-toxic to cells
- inhibition of migration of MDA MB 231 breast cancer cells [15]: more than 90%

Molecule: CC(=O)NC(Cc1ccccc1Cl)C(=O)N1CCCC12C=CC1CCC(C(=O)N3CCC4C=CC5CCC(C(=O)O)N5C(=O)C43)N1C2=O (stereo not shown) [Ac-Phe(2-Cl)-[ProM-2][ProM-1]-OH, Ac-Phe(2-CI)-[ProM-2]-[ProM-1]-OH]
- Kd (EVH-1 domain [1]): 3.8 µM
- ITC ΔG (EVH-1 domain [1]): -7.41 kcal/mol
- Kd (EVH-1 domain [2]): 2.7 µM
- FT ΔG (EVH-1 domain [2]): -7.6 kcal/mol
- improvement of the binding affinity by a factor (FT) (EVH-1 domain [2]; in comparison to Ac-Phe(2-CI)-PP[ProM-1]-OH): 1.2

Molecule: CC(=O)NC(Cc1ccccc1Cl)C(=O)N1CCCC12C=CC1CCC(C(=O)N3CCC4C=CC5C(C)CC(C(=O)O)N5C(=O)C43)N1C2=O (stereo not shown) [Ac-Phe(2-Cl)-[ProM-2][ProM-9]-OH]
- Kd (EVH-1 domain [1]): 0.69 µM
- ITC ΔG (EVH-1 domain [1]): -8.41 kcal/mol
- free enthalpy (Gibbs free energy) gain ΔΔG over the ligand optimization (EVH-1 domain [1]; determined by means of ITC, overall progression from the wild-type ligand): -3.8 kcal/mol
- Kd (EVH-1 domain [2]): 0.28 µM
- FT ΔG (EVH-1 domain [2]): -8.94 kcal/mol

More lines, now with the values ahead:

- Kd (EVH-1 domain [1]): 8 µM
- ITC ΔG (EVH-1 domain [1]): -6.96 kcal/mol
- Kd (EVH-1 domain [2]): 0.4 µM
- FT ΔG (EVH-1 domain [2]): -8.77 kcal/mol
Molecule: Ac-Phe(2-Cl)-PP[ProM-9]-OH

- Plasma stability, % remaining (Tlast 240 min) (in vitro [3]; human): 95.5%
- half-life (in vitro [3]; human): > 4 h
- Plasma stability, % remaining (Tlast 240 min) (in vitro [3]; mouse): 87.4%
- half-life (in vitro [3]; mouse): > 4 h
- Kd (EVL-EVH1 [4]): 4.1 µM
- half-life (in vitro [5]): > 1 h
- microsomal CLint (in vitro [5]): 35.6 µL/min/mg
- Kd (EnaH-EVH1 [6]): 4.1 µM
- Kd (EVL-EVH1 [7]): 5.8 µM
- half-life (in vitro [8]): > 1 h
- microsomal CLint (in vitro [8]): 26.4 µL/min/mg
- Kd (EnaH-EVH1 [9]): 7.8 µM
- Kd (VASP-EVH1 [10]): 6.2 µM
- fraction unbound (in vitro [11]): 0.981
- Kd (VASP-EVH1 [12]): 9.4 µM
- fraction unbound (in vitro [13]): 0.924
Molecule: CCOC(=O)C1CCC2C=CC3CCN(C(=O)C4CCC5C=CC6(CCCN6C(=O)C(Cc6ccccc6Cl)NC(C)=O)C(=O)N54)C3C(=O)N21 (stereo not shown) [Compound 4D, Ac-Phe(2-CI)-[ProM-2][ProM-1]-OEt]

- Kd (EVH-1 domain [1]): 9.7 µM
- ITC ΔG (EVH-1 domain [1]): -6.84 kcal/mol
- Kd (EVH-1 domain [2]): 1.6 µM
- FT ΔG (EVH-1 domain [2]): -7.91 kcal/mol
Molecule: Ac-Phe(2-Cl)-[ProM-2][ProM-4]-OH

- Kd (EVH-1 domain [1]): 14.1 µM
- ITC ΔG (EVH-1 domain [1]): -6.62 kcal/mol
- Kd (EVH-1 domain [2]): 3.2 µM
- FT ΔG (EVH-1 domain [2]): -7.5 kcal/mol
Molecule: Ac-Phe(2-Cl)-PP[ProM-1]-OH

- Plasma stability, % remaining (Tlast 240 min) (in vitro [3]; human): 80.3%
- Plasma stability, % remaining (Tlast 240 min) (in vitro [3]; mouse): 94.7%
- Liver microsomal stability Clint (in vitro [5]): 34.0 μl/min/mg protein
- Liver microsomal stability t½ (in vitro [5]): >1 h
- Liver microsomal stability Clint (in vitro [8]): 11.6 μl/min/mg protein
- Liver microsomal stability t½ (in vitro [8]): >1 h
Molecule: Ac-Phe(2-CI)-[ProM-2][ProM-1]-NH2 [Compound 4C]

Source: patent publication US10344053B2, “Inhibitors for inhibiting tumor metastasis” (Forschungsverbund Berlin e.V., priority 2014, dated 2019)
